How the values were obtained:
Factor XIa = Factor XIa (Homo sapiens, UniProt P03951); assay: Factor XIa inhibition assay utilizing a fluorophore-quencher pair peptide substrate (FLINT); assay type: biochemical; conditions: 11-point, 3-fold serial dilution, top 100 nM; 30 min preincubation; 15 μM 5Fam-KLTRAETV-K5Tamra substrate; kinetic reads over 30 min; read-out: FXIa Inhibition IC50
Outline: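 FXIa ([…]) preincubated 30 min with compound (11-point, 3-fold, top 100 nM, 2% DMSO) in Tris pH 7.5, NaCl, CaCl2, BSA, CHAPS; 15 μM 5Fam-KLTRAETV-K5Tamra substrate then added. Fluorescence (485/520 nm) read kinetically over 30 min at room temperature; IC50 by 4-parameter fit.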

human plasma kallikrein = human plasma kallikrein (Homo sapiens, UniProt P03952); assay: Kallikrein inhibition assay utilizing a quenched AMC peptide substrate (FLINT); assay type: biochemical; conditions: 11-point, 3-fold serial dilution, top 1 μM; 30 min preincubation; 2 nM kallikrein; 50 μM Z-Gly-Pro-Arg-AMC; kinetic reads over 30 min
Description: Biological Example 2: Kallikrein Inhibition Assay Utilizing a Quenched AMC Peptide Substrate
A fluorescence intensity (FLINT) based assay was used to monitor inhibition of human plasma kallikrein. The peptide substrate, Z-Gly-Pro-Arg-AMC (Purchased from Bachem; Catalog #I-1150) was chosen based on its relatively low KM for kallikrein which enables running the assay at lower substrate concentrations to control background fluorescence. The kinetic parameters for this substrate were determined by fitting titration data to the Michaelis-Menten equation yielding a KM=40 μM, kcat=0.76 s^−1, and kcat/KM=18932 M^−1s^−1.
The Kallikrein FLINT assay was used with the following Z-Gly-Pro-Arg-AMC assay buffer: 50 mM Tris, pH 7.5, 100 mM NaCl, 5 mM CaCl2, 0.1 mg/mL BSA, 0.03% CHAPS. Assay buffer was prepared by mixing all ingredients fresh. 2× Z-Gly-Pro-Arg-AMC peptide substrate was prepared by diluting 10 mM stock into 1× assay buffer for a 100 μM working concentration (50 μM final concentration). The 2× kallikrein stock solution was prepared by diluting 14.76 μM stock in 1× assay buffer for a 4 nM working stock solution (2 nM final concentration).
Test compound(s) were run in an 11-point, 3-fold serial dilution with a final top compound concentration of 1 μM. Final DMSO in assay was 2%. Plasma kallikrein was pre-incubated for 30-minute with compound and then 50 μM substrate was added to initiate the reaction. The assay was run with kinetic (KIN) reads at 5 min intervals over 30 minutes. The time course was linear using 2 nM kallikrein greater than 30 minutes. More specifically, the assay was run as follows: • 100 nL of 0.1 mM test compound was dispensed into black 384-well non-binding Greiner BioOne 784900 plate for 1 μM final concentration; • 5 μL of 1× assay buffer was dispensed to columns 24 (low control) and 5 μL 2× human kallikrein enzyme solution was dispensed to columns 1-23 (column 23 high control); • the plate was centrifuged with a “cover” plate at 500 rpm for 1 min • the plate was pre-incubated for 30 minutes at room temperature with plate covered; • 5 μL of 2× Z-Gly-Pro-Arg-AMC peptide substrate was dispensed into the entire plate, columns 1-24; • the plate was centrifuged with a “cover” plate at 500 rpm for 1 min; • the plate was read monitoring fluorescence intensity on the BMG PHERAStar at room temperature, using fluorescence module 340 nm/440 nm.
Percent inhibition (IC50) curves were generated per compound tested, and data was analyzed using a 4-parameter logistic fit using GeneData Screener. The relative fluorescence unit (RFU) values were normalized to percent inhibition using the following equation: % inhibition=((HC−LC)−(compound−LC)/(HC−LC))*100
where LC—low control=mean signal of […] 100% inhibition of human kallikrein enzyme; HC—high control=mean signal of […]+Z-Gly-Pro-Arg-AMC peptide substrate with DMSO only.
An 11-point dose response curve for the test compound(s) was generated using GENDATA to determine IC50 value based on the following equation: Y=Bottom+(Top−Bottom)/(1+10^((log IC50−X)*HillSlope))
where Y is the % inhibition in the presence of X inhibitor concentration, Top=high control=mean signal of human kallikrein enzyme+Z-Gly-Pro-Arg-AMC peptide substrate with DMSO only; Bottom=low control—mean signal of no human kallikrein enzyme or 100% inhibition of human kallikrein enzyme; HillSlope—Hill coefficient; and IC50=concentration of compound with 50% inhibition in relation to top/high control.

Chain of Factor XIa (P03951 388-625 limits assumed): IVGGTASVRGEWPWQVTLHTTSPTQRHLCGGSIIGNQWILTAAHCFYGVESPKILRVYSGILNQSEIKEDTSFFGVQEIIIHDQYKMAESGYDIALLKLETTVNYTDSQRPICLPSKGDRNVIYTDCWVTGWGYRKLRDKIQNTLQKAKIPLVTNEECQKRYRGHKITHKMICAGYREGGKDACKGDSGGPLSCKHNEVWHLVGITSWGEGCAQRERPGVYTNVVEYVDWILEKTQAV
Chain of Factor XIa (P03951 19-387 partner limits assumed): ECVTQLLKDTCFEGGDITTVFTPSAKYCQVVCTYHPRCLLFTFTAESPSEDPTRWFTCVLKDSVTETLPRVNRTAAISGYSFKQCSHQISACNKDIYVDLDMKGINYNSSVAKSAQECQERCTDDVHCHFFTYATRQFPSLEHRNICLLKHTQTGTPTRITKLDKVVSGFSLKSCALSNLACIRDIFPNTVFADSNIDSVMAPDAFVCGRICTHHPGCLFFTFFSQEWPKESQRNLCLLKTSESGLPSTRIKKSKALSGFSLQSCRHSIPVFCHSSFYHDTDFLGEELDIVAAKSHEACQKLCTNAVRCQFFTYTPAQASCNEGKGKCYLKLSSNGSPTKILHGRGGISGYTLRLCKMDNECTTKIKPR
Chain of human plasma kallikrein (P03952 391-638 limits assumed): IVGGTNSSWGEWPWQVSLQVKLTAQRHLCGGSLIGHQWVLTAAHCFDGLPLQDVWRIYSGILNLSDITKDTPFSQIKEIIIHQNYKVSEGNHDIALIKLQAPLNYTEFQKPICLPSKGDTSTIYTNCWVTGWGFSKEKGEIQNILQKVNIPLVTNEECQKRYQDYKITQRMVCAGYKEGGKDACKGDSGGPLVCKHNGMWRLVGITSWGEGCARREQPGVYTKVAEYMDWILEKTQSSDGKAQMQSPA
Chain of human plasma kallikrein (P03952 20-390 partner limits assumed): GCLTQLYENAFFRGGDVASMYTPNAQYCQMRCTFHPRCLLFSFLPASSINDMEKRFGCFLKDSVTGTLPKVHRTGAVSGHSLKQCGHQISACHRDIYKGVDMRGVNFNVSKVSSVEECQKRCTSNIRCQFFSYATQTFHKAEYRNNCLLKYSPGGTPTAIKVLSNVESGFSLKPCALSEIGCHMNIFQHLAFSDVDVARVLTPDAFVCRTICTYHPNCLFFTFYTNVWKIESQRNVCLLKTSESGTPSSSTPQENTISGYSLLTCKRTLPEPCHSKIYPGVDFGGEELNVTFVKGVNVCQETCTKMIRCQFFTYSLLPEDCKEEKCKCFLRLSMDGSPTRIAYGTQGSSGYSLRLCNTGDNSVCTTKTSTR

IC50 (Factor XIa) | IC50 (human plasma kallikrein) | Compound
62.1 nM | 178 nM | O=C(Nc1ccc2c(c1)C1(CCCC1)C(=O)N2)[C@@H]1CC[C@@H]2CC(c3c(-n4cnnn4)ccc(Cl)c3F)=CC(=O)N21 [ID No. 8, (3S,8aR)-7-(3-Chloro-2-fluoro-6-(1H-tetrazol-1-yl)phenyl)-5-oxo-N-(2′-oxospiro[cyclopentane-1,3′-indolin]-5′-yl)-1,2,3,5,8,8a-hexahydroindolizine-3-carboxamide]
45.9 nM | 59.5 nM | C[C@H]1C[C@@H](C(=O)Nc2ccc3nccnc3c2)N2C(=O)C=C(c3c(-n4cnnn4)ccc(Cl)c3F)C[C@H]12 (single isomer, unassigned) [ID No. 80, (1S*,3S,8aR*)-7-[3-Chloro-2-fluoro-6-(tetrazol-1-yl)phenyl]-1-methyl-5-oxo-N-quinoxalin-6-yl-2,3,8,8a-tetrahydro-1H-indolizine-3-carboxamide]
13.3 nM | 17.2 nM | CC1(C)C[C@@H](C(=O)Nc2ccc3nccnc3c2)N2C(=O)C=C(c3c(-n4cnnn4)ccc(Cl)c3F)CC21 (single isomer, unassigned) [ID No. 62, (3S,8aS*)-7-[3-Chloro-2-fluoro-6-(tetrazol-1-yl)phenyl]-1,1-dimethyl-5-oxo-N-quinoxalin-6-yl-2,3,8,8a-tetrahydroindolizine-3-carboxamide]
33.5 nM | 50.4 nM | CC(O)c1nc2cc(NC(=O)[C@@H]3CCC4CC(c5c(-n6cnnn6)ccc(Cl)c5F)=CC(=O)N43)ccc2s1 (mixture of isomers) [compound 92]
7.4 nM | 79.7 nM | NC(=O)c1ccc(NC(=O)[C@@H]2CCC3CC(c4c(-n5cnnn5)ccc(Cl)c4F)=CC(=O)N32)cc1 (mixture of isomers) [ID No. 41, (3S)—N-(4-Carbamoylphenyl)-7-(3-chloro-2-fluoro-6-(1H-tetrazol-1-yl)phenyl)-5-oxo-1,2,3,5,8,8a-hexahydroindolizine-3-carboxamide]
3.2 nM | 60.4 nM | O=C(O)c1[nH]c2ccc(NC(=O)[C@@H]3CCC4CC(c5c(-n6cnnn6)ccc(Cl)c5F)=CC(=O)N43)cc2c1F (mixture of isomers) [ID No. 26, 5-[[(3S)-7-[3-Chloro-2-fluoro-6-(tetrazol-1-yl)phenyl]-5-oxo-2,3,8,8a-tetrahydro-1H-indolizine-3-carbonyl]amino]-3-fluoro-1H-indole-2-carboxylic acid]
28.1 nM | 116 nM | NC(=O)c1ccc(NC(=O)[C@@H]2CC[C@@H]3CC(c4cc(Cl)ccc4-n4cc(C(F)(F)F)nn4)=CC(=O)N32)cc1F [ID No. 25, (3S,8aR)—N-(4-Carbamoyl-3-fluorophenyl)-7-(5-chloro-2-(4-(trifluoromethyl)-1H-1,2,3-triazol-1-yl)phenyl)-5-oxo-1,2,3,5,8,8a-hexahydroindolizine-3-carboxamide]
8 nM | 63.5 nM | Cn1cnc(-c2ccc(NC(=O)[C@@H]3CCC4CC(c5c(-n6cnnn6)ccc(Cl)c5F)=CC(=O)N43)cc2)n1 (mixture of isomers) [ID No. 77, (3S)-7-[3-Chloro-2-fluoro-6-(tetrazol-1-yl)phenyl]-N-[4-(1-methyl-1,2,4-triazol-3-yl)phenyl]-5-oxo-2,3,8,8a-tetrahydro-1H-indolizine-3-carboxamide]
0.4 nM | 6.4 nM | O=C(Nc1ccc(-c2nc(=O)o[nH]2)c(F)c1)[C@@H]1CCC2CC(c3c(-n4cnnn4)ccc(Cl)c3F)=CC(=O)N21 (single isomer, unassigned) [ID No. 35, (3S,8aR*)-7-[3-Chloro-2-fluoro-6-(tetrazol-1-yl)phenyl]-N-[3-fluoro-4-(5-oxo-2H-1,2,4-oxadiazol-3-yl)phenyl]-5-oxo-2,3,8,8a-tetrahydro-1H-indolizine-3-carboxamide]
42.2 nM | 128 nM | [2H]c1nnnn1-c1ccc(Cl)c(F)c1C1=CC(=O)N2C(CCC2C(=O)Nc2ccc3c(c2)C2(CC2)C(=O)N3)C1 (centres unmarked) [compound 96]

Reference: US12286429B2, “5-oxo-1,2,3,5,8,8a-hexahydroindolizine-3-carboxamide derivatives useful as a factor XIa inhibitors” (Janssen Pharmaceutica NV, priority 2021, dated 2025)
